From patent US20240287138A1, “CYCLIC PEPTIDES FOR INHIBITING TNF RECEPTOR 1 ACTIVITY” (Merck Sharp & Dohme LLC, priority 2023, published 2024)
Like-named read-outs stand apart in the source and are kept apart here. Numbered stars: 1 amine (or outer) side, 2 acyl side, 3 side chain; on linkers, the order of the positions; unused ones are H or OH. Bridge positions count the residues as written; N and C are the ends. Square brackets hold non-standard residues; d marks the D form. Peptide text beside a SMILES is read from it. Trp(βS-Me,7-OMe) = COc1cccc2c([C@H](C)[C@H](N)C(=O)O)c[nH]c12; Trp(7-CN) = N#Cc1cccc2c(C[C@H](N)C(=O)O)c[nH]c12; Trp(7-Cl) = N[C@@H](Cc1c[nH]c2c(Cl)cccc12)C(=O)O; Phe(4-CONH2) = NC(=O)c1ccc(C[C@H](N)C(=O)O)cc1; Phe(4-COOH) = N[C@@H](Cc1ccc(C(=O)O)cc1)C(=O)O; Trp(7-aza) = N[C@@H](Cc1c[nH]c2ncccc12)C(=O)O; Phe(4-CH2NH2) = NCc1ccc(C[C@H](N)C(=O)O)cc1; X23 = N[C@@H]1CCN([*:1])[C@H](C(=O)[*:2])C1; Pip(5R-OH) = O=C(O)[C@@H]1CC[C@@H](O)CN1; X1 = O=C([C@@H]1CC[C@H](N[*:1])C1)[*:2]; Nle(5,5-F2) = CC(F)(F)CC[C@H](N)C(=O)O; Pip(4-aza) = O=C(O)[C@@H]1CNCCN1; 4Pal = N[C@@H](Cc1ccncc1)C(=O)O; NMeE = CN[C@@H](CCC(=O)O)C(=O)O; dHyp = O=C(O)[C@H]1C[C@H](O)CN1; αMeS = C[C@](N)(CO)C(=O)O; Nle = CCCC[C@H](N)C(=O)O; Sar = CNCC(=O)O

What was measured:
[1] = target: T1, human TNFR1 extracellular domain (ECD) protein (Homo sapiens, UniProt P19438); experiment: SPR binding affinity to captured human TNFR1 ECD
T1 construct: HRV 3C protease cleavage site (C); 6His (C, cleaved yes); made in house; host or cells: Sf21 insect cells (baculovirus), secreted
T1 sequence (P19438 30-211): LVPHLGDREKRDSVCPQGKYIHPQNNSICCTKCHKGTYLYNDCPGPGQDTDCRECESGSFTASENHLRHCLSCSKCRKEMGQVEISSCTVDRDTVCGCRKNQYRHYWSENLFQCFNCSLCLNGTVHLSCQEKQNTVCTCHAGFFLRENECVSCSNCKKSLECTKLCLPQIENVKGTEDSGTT
In short: (§1)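 Biotinylated avi-tagged human TNFR1 or TNFR2 ECD, expressed in Sf21 insect cells, captured on streptavidin SPR chip; peptide analytes run in 10 mM HEPES pH 7.4, 150 mM NaCl, 3 mM EDTA, 0.05% P20, 2% DMSO. kon and koff measured, affinity KA calculated.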

human TNFR2 ECD protein = target: T2, human TNFR2 ECD protein (Homo sapiens, UniProt P20333); experiment: SPR off-target binding (selectivity) to human TNFR2 ECD
T2 construct: HRV 3C protease cleavage site (C); 6His (C, cleaved yes); made in house; host or cells: Sf21 insect cells (baculovirus), secreted
T2 sequence (P20333 23-257): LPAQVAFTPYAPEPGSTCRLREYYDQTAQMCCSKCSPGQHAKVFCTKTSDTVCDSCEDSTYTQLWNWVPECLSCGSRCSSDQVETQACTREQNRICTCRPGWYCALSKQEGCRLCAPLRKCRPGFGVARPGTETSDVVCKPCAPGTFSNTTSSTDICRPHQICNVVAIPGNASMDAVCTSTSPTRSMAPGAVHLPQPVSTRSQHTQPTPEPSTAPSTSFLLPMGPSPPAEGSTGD
In short: as §1

[2] = target: T3, human soluble TNFR1 (sTNFR1) (Homo sapiens, UniProt P19438); experiment: Human sTNFR1-peptide displacement assay (LanthaScreen Eu TR-FRET binding assay)
T3 construct: made in house; host or cells: Sf21 (baculovirus)
T3 sequence (P19438 with tags, fused parts or gaps): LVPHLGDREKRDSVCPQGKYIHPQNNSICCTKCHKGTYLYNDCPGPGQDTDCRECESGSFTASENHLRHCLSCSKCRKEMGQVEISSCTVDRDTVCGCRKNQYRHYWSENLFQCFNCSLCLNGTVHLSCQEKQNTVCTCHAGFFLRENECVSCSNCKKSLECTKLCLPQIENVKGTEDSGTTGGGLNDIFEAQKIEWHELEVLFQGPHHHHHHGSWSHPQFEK
In short: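 Readout is the 665/615 nm TR-FRET ratio (Eu anti-His donor, streptavidin-Alexa647 acceptor), normalized to DMSO and saturating displacer, fit by Morrison-based five-parameter logistic for Kd^app. His-tagged sTNFR1 (1-211) prebound to 100 nM biotinylated peptide SEQ ID NO.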

| Structure (SMILES) | Kd ([1]; biotinylated human TNFR1 ECD on streptavidin chip, from kon and koff, read-out: SPR hTNFR1 KD) [nM] | Kd (human TNFR2 ECD protein; biotinylated human TNFR2 ECD on streptavidin chip, read-out: SPR hTNFR2 KD) [nM] | Kd ([2]; displacement of biotinylated peptide SEQ ID NO. 1 from sTNFR1, 20 point titration, 5-parameter fit based on Morrison equation (tight binding), read-out: TR-FRET Kd^app) [nM] | Kd [1] [nM] | Kd (human TNFR2 ECD protein) [nM] | Kd [2] [nM] |
| --- | --- | --- | --- | --- | --- | --- |
| CCCC[C@@H]1NC(=O)[C@@H]2CC[C@@H](C2)NC(=O)[C@H]([C@@H](C)c2c[nH]c3c(OC)cccc23)NC(=O)CN(C)C(=O)[C@H](Cc2ccc(C(N)=O)cc2)NC(=O)[C@H](Cc2ccc(C(N)=O)cc2)NC(=O)[C@](C)(CO)NC(=O)[C@H](Cc2c[nH]c3c(C#N)cccc23)NC(=O)[C@H](Cc2ccc(C(=O)O)cc2)NC(=O)[C@H](CC(N)=O)NC(=O)[C@H]2C[C@H](O)CN2C(=O)[C@H](Cc2c[nH]c3ncccc23)NC(=O)[C@@H]2CC[C@@H](O)CN2C(=O)[C@H](Cc2ccncc2)NC1=O [SEQ ID NO. 254] (cyclo([4Pal][Pip(5R-OH)][Trp(7-aza)][dHyp]N[Phe(4-COOH)][Trp(7-CN)][αMeS][Phe(4-CONH2)][Phe(4-CONH2)][Sar][Trp(βS-Me,7-OMe)][X1][Nle])) | 0.02 | > 1000 | 0.06 | – | – | – |
| CCCC[C@@H]1NC(=O)[C@@H]2CC[C@@H](C2)NC(=O)[C@H]([C@@H](C)c2c[nH]c3c(OC)cccc23)NC(=O)CN(C)C(=O)[C@H](Cc2ccc(CN)cc2)NC(=O)[C@H](Cc2ccc(C(=O)O)cc2)NC(=O)[C@](C)(CO)NC(=O)[C@H](Cc2c[nH]c3c(Cl)cccc23)NC(=O)[C@H](Cc2ccncc2)NC(=O)[C@H](CC(N)=O)NC(=O)[C@H](CCC(=O)O)N(C)C(=O)[C@H](Cc2c[nH]c3ccccc23)NC(=O)[C@@H]2CNCCN2C(=O)[C@H](Cc2ccncc2)NC1=O [SEQ ID NO. 269] (cyclo([4Pal][Trp(7-Cl)][αMeS][Phe(4-COOH)][Phe(4-CH2NH2)][Sar][Trp(βS-Me,7-OMe)][X1][Nle][4Pal][Pip(4-aza)]W[NMeE]N)) | – | – | – | 0.1 | > 1000 | 0.08 |
| CCCC[C@@H]1NC(=O)CSC[C@@H](C(N)=O)NC(=O)[C@H]([C@@H](C)c2c[nH]c3c(OC)cccc23)NC(=O)CN(C)C(=O)[C@H](Cc2ccc(O)cc2)NC(=O)[C@H](Cc2ccc(C(=O)O)cc2)NC(=O)[C@](C)(CO)NC(=O)[C@H](Cc2c[nH]c3c(Cl)cccc23)NC(=O)[C@H](Cc2ccncc2)NC(=O)[C@H](CC(N)=O)NC(=O)[C@H](CCC(=O)O)N(C)C(=O)[C@H](Cc2c[nH]c3ccccc23)NC(=O)[C@@H]2C[C@H](N)CCN2C(=O)[C@H](Cc2ccncc2)NC1=O [SEQ ID NO. 271] ({CH2CO}-[Nle][4Pal][X23]W[NMeE]N[4Pal][Trp(7-Cl)][αMeS][Phe(4-COOH)]Y[Sar][Trp(βS-Me,7-OMe)]C-NH2; thioether N-14) | – | – | – | 0.28 | > 1000 | 0.95 |
| COc1cccc2c([C@H](C)[C@@H]3NC(=O)CN(C)C(=O)[C@H](Cc4ccc(O)cc4)NC(=O)[C@H](Cc4ccc(C(=O)O)cc4)NC(=O)[C@](C)(CO)NC(=O)[C@H](Cc4c[nH]c5c(Cl)cccc45)NC(=O)[C@H](Cc4ccncc4)NC(=O)[C@H](CC(N)=O)NC(=O)[C@H](CCC(=O)O)N(C)C(=O)[C@H](Cc4c[nH]c5ccccc45)NC(=O)[C@@H]4CNCCN4C(=O)[C@H](Cc4ccncc4)NC(=O)[C@H](CCC(C)(F)F)NC(=O)[C@@H]4CC[C@@H](C4)NC3=O)c[nH]c12 [SEQ ID NO. 275] (cyclo([4Pal][Trp(7-Cl)][αMeS][Phe(4-COOH)]Y[Sar][Trp(βS-Me,7-OMe)][X1][Nle(5,5-F2)][4Pal][Pip(4-aza)]W[NMeE]N)) | – | – | – | 0.3 | > 1000 | 0.36 |
